Biological target: T1, WT-CFTR (Homo sapiens, UniProt P13569)
T1 construct: host or cells: CFBE41o-
Test: Anti-CFTR immunoblotting (C-band) in CFBE41o- cells expressing WT-CFTR
Assay type: cell-based
Settings: 24 h
Experimental: Cystic fibrosis bronchial epithelial (CFBE41o^−) cells stably expressing the human WT CFTR or F508del-CFTR mutant [generated in ([26])] were a gift from J. P. Clancy (University of Alabama, Birmingham) and cultured on fibronectin-coated plates (FNC coating mix; Enzo) in minimum essential medium with Earl’s salt (Thermo Fisher Scientific) containing 10% of heat-inactivated fetal bovine serum (FBS; Gibco), penicillin (100 U/ml), streptomycin ([…]) (Thermo Fisher Scientific), and puromycin (2 μg/ml; Sigma-Aldrich). […]
All cells were washed with ice-cold PBS and then lysed for 1 hour on ice with radioimmunoprecipitation assay (RIPA) buffer (Sigma-Aldrich, #R0278) containing 100 mM Na-fluoride, 4 mM Na-orthovanadate, 1 mM phenylmethylsulfonyl fluoride, 1 mM dithiothreitol, and benzonase (100 U/ml; Sigma-Aldrich). […] Samples were mixed with LDS sample buffer (Invitrogen), resolved by SDS-PAGE on 4 to 12% Novex bis-tris precast gels (Thermo Fisher Scientific), and analyzed by Western blotting using a wet transfer method (GenScript) and polyvinylidene difluoride membranes (Life Technologies). […] Membranes were treated with Western Lightning enhanced chemiluminescence substrate (PerkinElmer), and the chemiluminescence signal was recorded and quantified using a chemiluminescence reader and the corresponding software (Fusion FX 7, Evolution Edge, Vilber). […]

T1 sequence (P13569 whole entry): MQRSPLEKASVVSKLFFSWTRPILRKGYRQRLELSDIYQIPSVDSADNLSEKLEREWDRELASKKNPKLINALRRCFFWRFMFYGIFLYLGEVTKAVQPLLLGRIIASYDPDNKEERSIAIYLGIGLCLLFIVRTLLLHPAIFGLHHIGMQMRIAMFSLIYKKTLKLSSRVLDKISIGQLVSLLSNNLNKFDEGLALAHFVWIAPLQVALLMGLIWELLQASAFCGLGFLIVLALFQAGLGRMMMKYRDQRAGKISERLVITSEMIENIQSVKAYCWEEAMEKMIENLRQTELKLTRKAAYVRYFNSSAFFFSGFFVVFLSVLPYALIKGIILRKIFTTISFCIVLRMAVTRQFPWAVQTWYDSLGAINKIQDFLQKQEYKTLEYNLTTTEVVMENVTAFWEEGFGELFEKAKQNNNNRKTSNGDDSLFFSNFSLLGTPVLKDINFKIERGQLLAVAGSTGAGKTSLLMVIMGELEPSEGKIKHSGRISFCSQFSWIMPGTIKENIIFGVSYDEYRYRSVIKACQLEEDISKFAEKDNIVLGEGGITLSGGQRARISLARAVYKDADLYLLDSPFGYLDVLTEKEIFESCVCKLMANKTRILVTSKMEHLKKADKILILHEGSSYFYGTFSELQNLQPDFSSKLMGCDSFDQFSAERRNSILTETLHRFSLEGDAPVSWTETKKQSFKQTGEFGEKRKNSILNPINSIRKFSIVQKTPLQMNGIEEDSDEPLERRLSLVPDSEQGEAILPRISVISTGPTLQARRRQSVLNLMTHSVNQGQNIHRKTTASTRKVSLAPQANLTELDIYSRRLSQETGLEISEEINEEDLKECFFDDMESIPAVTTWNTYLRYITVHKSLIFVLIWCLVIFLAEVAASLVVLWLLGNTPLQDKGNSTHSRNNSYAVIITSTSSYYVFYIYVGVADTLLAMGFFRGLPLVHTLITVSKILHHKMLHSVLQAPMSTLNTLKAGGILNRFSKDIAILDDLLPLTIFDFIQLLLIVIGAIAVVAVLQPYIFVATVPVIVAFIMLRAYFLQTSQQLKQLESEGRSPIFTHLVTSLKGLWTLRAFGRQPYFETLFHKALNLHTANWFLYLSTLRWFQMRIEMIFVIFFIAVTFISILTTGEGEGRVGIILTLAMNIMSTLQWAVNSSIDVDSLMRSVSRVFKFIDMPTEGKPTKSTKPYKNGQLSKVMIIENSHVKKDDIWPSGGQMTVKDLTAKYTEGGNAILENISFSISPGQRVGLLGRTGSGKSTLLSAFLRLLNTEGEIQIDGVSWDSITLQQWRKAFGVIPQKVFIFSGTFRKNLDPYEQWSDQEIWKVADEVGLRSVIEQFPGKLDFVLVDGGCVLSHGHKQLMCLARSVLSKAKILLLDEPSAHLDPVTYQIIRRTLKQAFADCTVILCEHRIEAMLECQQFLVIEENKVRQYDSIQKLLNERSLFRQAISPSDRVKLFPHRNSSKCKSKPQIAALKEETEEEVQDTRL

SMILES: COc1cc(CCNC(=O)C2CC(=O)N(C)C(CC(C)C)C(=O)N3CCCCC3C(=O)NC(Cc3ccccc3)COc3ccc4ncc(F)cc4c3C(=O)N2)on1 (stereo not shown) [IDOR-3]
- increase in WT-CFTR C-band: ~ 2 fold

— paper PMC11801377, “A uniquely efficacious type of CFTR corrector with complementary mode of action” (Science Advances, 2024)
